Laboratory results taken from patent US10272133B2, “Compositions and methods for treating and preventing hyperlipidemia, fatty liver, atherosclerosis and other disorders associated with metabolic syndrome” (VANDERBILT UNIVERSITY, priority 2011, dated 2019).
Converted amounts (≈) assume the structure as drawn. Read-outs that look alike come from different tables or passages of the source. Bridge positions count the residues as written; N and C are the ends. Ends that are not written are not given here. Peptide text beside a SMILES is read from it.

How the values were obtained:
[1] = target: T1, importin beta (Homo sapiens, UniProt Q14974); experiment: Importins pull-down assay, Jurkat T cell extract; type: binding; parameters: whole cell extract from unstimulated human Jurkat T cells; endogenous in cells; host or cells: human Jurkat T cells, whole-cell extract; details: biotinylated peptide, Jurkat T cell lysate pull-down
T1 sequence (Q14974 whole entry): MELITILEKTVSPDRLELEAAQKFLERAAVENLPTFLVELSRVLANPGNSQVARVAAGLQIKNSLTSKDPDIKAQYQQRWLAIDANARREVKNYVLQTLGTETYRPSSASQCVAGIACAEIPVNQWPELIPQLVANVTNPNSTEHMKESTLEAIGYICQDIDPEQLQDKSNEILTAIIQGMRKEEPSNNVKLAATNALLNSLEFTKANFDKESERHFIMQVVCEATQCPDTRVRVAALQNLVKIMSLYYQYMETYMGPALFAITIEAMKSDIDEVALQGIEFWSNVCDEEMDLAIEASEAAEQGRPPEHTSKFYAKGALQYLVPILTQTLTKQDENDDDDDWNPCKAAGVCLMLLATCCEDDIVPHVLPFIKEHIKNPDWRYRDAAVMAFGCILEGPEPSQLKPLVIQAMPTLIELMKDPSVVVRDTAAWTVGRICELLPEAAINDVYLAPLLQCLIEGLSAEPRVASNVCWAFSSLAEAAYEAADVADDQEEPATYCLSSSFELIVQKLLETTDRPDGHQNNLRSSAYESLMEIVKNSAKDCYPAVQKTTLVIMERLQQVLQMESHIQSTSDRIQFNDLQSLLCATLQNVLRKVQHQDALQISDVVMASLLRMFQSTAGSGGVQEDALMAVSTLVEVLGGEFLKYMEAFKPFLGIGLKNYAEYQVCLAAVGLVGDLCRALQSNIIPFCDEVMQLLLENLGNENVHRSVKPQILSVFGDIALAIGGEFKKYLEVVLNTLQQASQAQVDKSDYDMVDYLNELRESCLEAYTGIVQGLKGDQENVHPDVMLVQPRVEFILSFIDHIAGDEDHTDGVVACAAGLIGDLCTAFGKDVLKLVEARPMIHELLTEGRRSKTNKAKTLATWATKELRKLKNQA
Experimental: (§1) Cell-penetrating peptide cSN50.1 (2986 Da) and other peptides listed in Table 1 were synthesized and prepared as previously described (Liu, D., et al., (2009) Mol Ther 17, 796-802). Biotinylated NTM peptides and their constituent modules were prepared in the same manner, with biotin added to the amino terminus at the last step of synthesis. When necessary, a 5-7 hydrophilic amino acid tag was added to peptide modules to facilitate solubility. For i.p. administration, 200 μl aliquots containing 0.4 or 0.7 mg of cSN50.1 in saline was injected at 8 h or 12 h intervals. Alternatively, 10 mg cSN50.1 in 100 μl sterile H2O was administered subcutaneously from ALZET Osmotic Pumps (1007D) placed aseptically in interscapular areas. A bolus of 0.7 mg cSN50.1 in 100 μl saline was administered i.p. at weekly pump changes to assure steady NTM bioavailability. Dosage schedules were developed based on previous experimental protocols and half-life studies. Control mice received sterile saline in the same volumes as NTM. Importins pull-down assay. Ten nmols of biotinylated NTM peptides or their constituent modules depicted in Table 1 (SN50, cSN50.1, N50, cN50.1, SSHR-1, SSHR-2) were incubated overnight at 4° C. with 1.5 mg of whole cell extract from unstimulated human Jurkat T cells or serum-starved human HepG2 cells lysed in binding buffer (10 mM HEPES at pH 7.9, 150 mM NaCl, 10 mM KCl, 2.5 mM MgCl2, 1 mM EGTA, 1 mM DTT, 0.1% NP-40, 1% protease inhibitor cocktail). Lysate was cleared by centrifugation (16,000×g for 30 min at 4° C.) and transferred to a fresh tube containing high capacity Neutravidin beads (Thermo Scientific). After 4 h, beads were separated from lysate/peptide mixture by centrifugation (30 s at 1,000×g) and washed 3 times with binding buffer and 2 times with PBS. Beads were boiled for 10 min in SDS loading buffer, and protein content was analyzed by immunoblotting with a panel of anti-importins alpha and beta antibodies and anti-GAPDH (Abcam) as a cellular protein control.

[2] = system: ldlr−/− mice; experiment: General safety in ldlr-/- mice (blood cells, blood chemistries, infection); type: in vivo, mouse
Experimental: Six week old B6.129S7-Ldlrtm1Her/J female mice were purchased from Jackson Laboratories. Mice were fed a Western diet containing 21% milk fat and 0.15% cholesterol and maintained according to the guidelines for use and care of laboratory animals approved by the Vanderbilt University Institutional Animal Care and Use Committee. Mice and food were weighed at the beginning and end of each experiment. Blood chemistries were determined in fasting mouse plasma using an automated chemistry analyzer in the Vanderbilt Clinical Research Center. Total cholesterol and triglycerides in liver and cholesterol in feces were analyzed by standard methods in the Lipid Core Laboratory. Complete blood cell counts were performed in the Clinical Hematology Laboratory and flow cytometry analysis of lymphocytes subsets was. Cryostat sections of livers were stained with Oil-red-O. Atherosclerotic lesions and macrophages were analyzed in the aortic root by staining with Oil-red-O and MOMA-2, respectively. Average lesion area was determined using Imaging System KS300 2.0.

[3] = Solubility of peptides; type: physicochemical
[4] = target: T1, importin beta; experiment: Nuclear Transport Modifier/importin beta competition binding assay; parameters: whole cell extract from unstimulated human Jurkat T cells; endogenous in cells; host or cells: human Jurkat T cells, whole-cell extract; details: free non-biotinylated peptide 0-300 μM, Jurkat T cell extract
Experimental: Non-biotinylated SN50 peptide (at 0, 10, 30, 100 or 300 μM concentrations) was incubated overnight with 1 mg of human Jurkat T cell whole-cell extract at 4° C. Simultaneously, biotinylated SN50 peptide (10 nmols) was immobilized on high capacity Neutravidin beads at 4° C. overnight, then washed 3 times with PBS and 1 time with binding buffer to remove unbound biotinylated SN50. Binding mixture was precleared by centrifugation (16,000×g for 30 min at 4° C.) and transferred to a fresh tube containing washed high capacity Neutravidin beads complexed with immobilized biotinylated SN50 peptide. Immunoblot analysis of importin beta bound to beads was performed as described in the importins pull-down assay.

[5] = target: T1, importin beta; experiment: Importins pull-down assay, HepG2 cell extract; type: binding; parameters: endogenous in cells; details: HepG2 cell extracts
Experimental: (§2) Cell-penetrating peptide cSN50.1 (2986 Da) and other peptides listed in Table 1 were synthesized and prepared as previously described (Liu, D., et al., (2009) Mol Ther 17, 796-802). Biotinylated NTM peptides and their constituent modules were prepared in the same manner, with biotin added to the amino terminus at the last step of synthesis. When necessary, a 5-7 hydrophilic amino acid tag was added to peptide modules to facilitate solubility. For i.p. administration, 200 μl aliquots containing 0.4 or 0.7 mg of cSN50.1 in saline was injected at 8 h or 12 h intervals. Alternatively, 10 mg cSN50.1 in 100 μl sterile H2O was administered subcutaneously from ALZET Osmotic Pumps (1007D) placed aseptically in interscapular areas. A bolus of 0.7 mg cSN50.1 in 100 μl saline was administered i.p. at weekly pump changes to assure steady NTM bioavailability. Dosage schedules were developed based on previous experimental protocols and half-life studies. Control mice received sterile saline in the same volumes as NTM. Importins pull-down assay. […] Beads were boiled for 10 min in SDS loading buffer, and protein content was analyzed by immunoblotting with a panel of anti-importins alpha and beta antibodies and anti-GAPDH (Abcam) as a cellular protein control. […]

[6] = target: T2, GAPDH (Homo sapiens, UniProt P04406); experiment: Importins pull-down assay, Jurkat T cell extract, control protein; type: binding; parameters: endogenous in cells; details: biotinylated peptide, Jurkat T cell lysate pull-down
T2 sequence (P04406 whole entry): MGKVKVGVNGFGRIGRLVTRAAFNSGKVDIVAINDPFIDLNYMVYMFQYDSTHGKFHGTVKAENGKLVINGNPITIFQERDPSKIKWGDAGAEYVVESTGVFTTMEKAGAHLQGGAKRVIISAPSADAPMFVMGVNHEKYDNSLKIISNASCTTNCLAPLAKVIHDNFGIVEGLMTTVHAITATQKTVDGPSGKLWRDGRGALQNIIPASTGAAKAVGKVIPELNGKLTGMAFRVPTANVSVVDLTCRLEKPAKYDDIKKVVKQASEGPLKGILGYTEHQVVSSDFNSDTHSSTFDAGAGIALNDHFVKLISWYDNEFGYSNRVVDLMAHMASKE
Experimental: (§3) Cell-penetrating peptide cSN50.1 (2986 Da) and other peptides listed in Table 1 were synthesized and prepared as previously described (Liu, D., et al., (2009) Mol Ther 17, 796-802). Biotinylated NTM peptides and their constituent modules were prepared in the same manner, with biotin added to the amino terminus at the last step of synthesis. When necessary, a 5-7 hydrophilic amino acid tag was added to peptide modules to facilitate solubility. For i.p. administration, 200 μl aliquots containing 0.4 or 0.7 mg of cSN50.1 in saline was injected at 8 h or 12 h intervals. Alternatively, 10 mg cSN50.1 in 100 μl sterile H2O was administered subcutaneously from ALZET Osmotic Pumps (1007D) placed aseptically in interscapular areas. A bolus of 0.7 mg cSN50.1 in 100 μl saline was administered i.p. at weekly pump changes to assure steady NTM bioavailability. Dosage schedules were developed based on previous experimental protocols and half-life studies. Control mice received sterile saline in the same volumes as NTM. Importins pull-down assay. […] Beads were boiled for 10 min in SDS loading buffer, and protein content was analyzed by immunoblotting with a panel of anti-importins alpha and beta antibodies and anti-GAPDH (Abcam) as a cellular protein control.

[7] = system: importins alpha 1, 4, and 5; experiment: Importins pull-down assay, Jurkat T cell extract; type: binding, human; details: biotinylated peptide, Jurkat T cell lysate pull-down
Experimental: as §1

[8] = target: T2, GAPDH; experiment: Importins pull-down assay, HepG2 cell extract, control protein; type: binding; parameters: endogenous in cells; host or cells: human hepatoma HepG2 cells, starved overnight in 1% FBS, whole-cell extract; details: HepG2 cell extracts
Experimental: as §2

[9] = system: ldlr−/− mice fed a Western diet; experiment: Hyperlipidemia, fatty liver, hyperglycemia and weight gain in ldlr-/- mice fed a Western diet; type: in vivo, mouse
Experimental: as §3
Six week old B6.129S7-Ldlrtm1Her/J female mice were purchased from Jackson Laboratories. […] Blood chemistries were determined in fasting mouse plasma using an automated chemistry analyzer in the Vanderbilt Clinical Research Center. Total cholesterol and triglycerides in liver and cholesterol in feces were analyzed by standard methods in the Lipid Core Laboratory. […] Cryostat sections of livers were stained with Oil-red-O. Atherosclerotic lesions and macrophages were analyzed in the aortic root by staining with Oil-red-O and MOMA-2, respectively. Average lesion area was determined using Imaging System KS300 2.0.

Compound: AVLLALLAP (HOMO SAPIENS) [SSHR-2]
- interaction with importin beta [1]: importin beta-binding function

Compound: CSCC[C@@H]1NC(=O)[C@H](CC(C)C)NC(=O)[C@H](CCCCN)NC(=O)[C@H](CCC(N)=O)NC(=O)[C@H](CCCNC(=N)N)NC(=O)[C@H](CCCCN)NC(=O)[C@H](CCCNC(=N)N)NC(=O)[C@H](CCC(N)=O)NC(=O)[C@H](C(C)C)NC(=O)[C@@H](NC(=O)[C@@H]2CCCN2C(=O)[C@H](C)NC(=O)[C@H](CC(C)C)NC(=O)[C@H](CC(C)C)NC(=O)[C@H](C)NC(=O)[C@H](CC(C)C)NC(=O)[C@H](CC(C)C)NC(=O)[C@@H](NC(=O)[C@H](C)NC(=O)[C@@H]2CCCN2C(=O)[C@H](CC(C)C)NC(=O)[C@H](CC(C)C)NC(=O)[C@H](C)NC(=O)[C@@H](NC(=O)[C@H](C)NC(=O)[C@H](C)N)C(C)C)C(C)C)CSSC[C@@H](C(=O)O)NC(=O)[C@@H]2CCCN2C1=O [cSN50.1] (H-AAVALLPAVLLALLAPCVQRKRQKLMPC-OH; disulfide 17-28; N-terminus and C-terminus assumed)
- signs of infection or illness ([2]; 8 weeks of treatment): no overt signs of infection or illness
- blood cell populations and blood chemistries ([2]; mouse, in vivo): did not reveal any significant changes
- general susceptibility to environmental pathogens ([2]; mouse, in vivo): did not cause any apparent signs
- solubility ([3]; read-out: solubility): 100 mg/mL (≈ 33.5 mM)

Compound: AAVALLPAVLLALLAPVQRKRQKLMP [SN50]
- inhibition of biotinylated SN50 binding to importin beta [4]: competitively inhibited
- interaction with importin beta [1]: interacted
- interaction with importin beta [5]: interacted
- interaction with control cytoplasmic marker protein GAPDH [6]: not with the control cytoplasmic marker protein GAPDH
- interaction with importins alpha 1, 4, and 5 [7]: interacted
- interaction with control protein GAPDH [8]: not with the control protein GAPDH

Compound: CSCC[C@@H]1NC(=O)[C@H](CC(C)C)NC(=O)[C@H](CCCCN)NC(=O)[C@H](CCC(N)=O)NC(=O)[C@H](CCCNC(=N)N)NC(=O)[C@H](CCCCN)NC(=O)[C@H](CCCNC(=N)N)NC(=O)[C@H](CCC(N)=O)NC(=O)[C@H](C(C)C)NC(=O)[C@H](Cc2ccc(O)cc2)NC(=O)[C@@H](NC(=O)[C@@H]2CCCN2C(=O)[C@H](C)NC(=O)[C@H](CC(C)C)NC(=O)[C@H](CC(C)C)NC(=O)[C@H](C)NC(=O)[C@H](CC(C)C)NC(=O)[C@H](CC(C)C)NC(=O)[C@@H](NC(=O)[C@H](C)NC(=O)[C@@H]2CCCN2C(=O)[C@H](CC(C)C)NC(=O)[C@H](CC(C)C)NC(=O)[C@H](C)NC(=O)[C@@H](NC(=O)[C@H](C)NC(=O)[C@H](C)N)C(C)C)C(C)C)CSSC[C@@H](C(=O)O)NC(=O)[C@@H]2CCCN2C1=O [cSN50] (H-AAVALLPAVLLALLAPCYVQRKRQKLMPC-OH; disulfide 17-29; N-terminus and C-terminus assumed)
- solubility ([3]; depending on the method of synthesis and purification, read-out: soluble at levels): 2 to 40 mg/mL (≈ 0.635 to 12.7 mM)

Compound: VQRKRQKLMP (HOMO SAPIENS) [N50]
- interaction with importin beta [1]: did not react
- interaction with importins alpha 1, 4, and 5 [7]: maintain reactivity

Compound: CVQRKRQKLMPC (disulfide 1-12 (inferred)) [cN50.1]
- interaction with importin beta [1]: did not react
- liver alanine and aspartate transaminases (ALT and AST) in plasma ([9]; 8 weeks): elevated levels
- results vs mice given saline ([9]; control peptide, plasma cholesterol and triglycerides): not different
- experimental endpoints (hypercholesterolemia) vs saline alone ([9]; non-cell penetrating control peptide in saline): did not differ significantly
- interaction with importins alpha 1, 4, and 5 [7]: maintain reactivity

Compound: AAVALLPAVLLALLAPCVQRDEQKLMPC (disulfide 17-28 (inferred)) [cSN50.1 Beta]
- interaction with importins alpha 1, 4, and 5 [7]: did not react
